Reference: the supplement of paper PMC10307832

Tests used:
Assay in all cases: relative viability (nuclei count vs DMSO), 5 days (fraction); higher = more cells survive
[1] = tested on: NCI-H1666
Method in brief: (§1)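 Medians of duplicate plates are given as relative viability. That measure is the nuclei count in treated wells divided by the count in vehicle wells. Counts were taken on 4× images of lung cancer cell lines in 1536-well plates, 5 days after pin-tool dosing the day after seeding with one drug alone or a fixed anchor-drug dose plus five library-drug doses (not always all listed) in √10 steps.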

[2] = tested on: COR-L 105
Method in brief: as §1

[3] = tested on: A-427
Method in brief: as §1

[4] = tested on: NCI-H358
Method in brief: as §1

[5] = tested on: HOP-62
Method in brief: as §1

[6] = tested on: NCI-H460
Method in brief: as §1

[7] = tested on: NCI-H2170
Method in brief: as §1

[8] = tested on: LC-2-ad
Method in brief: as §1

[9] = tested on: HCC-366
Method in brief: as §1

[10] = tested on: SW 900
Method in brief: as §1

[11] = tested on: NCI-H2009
Method in brief: as §1

[12] = tested on: HCC-78
Method in brief: as §1

[13] = tested on: SK-LU-1
Method in brief: as §1

[14] = tested on: NCI-H2085
Method in brief: as §1

[15] = tested on: UMC-11
Method in brief: as §1

[16] = tested on: NCI-H1793
Method in brief: as §1

[17] = tested on: EPLC-272H
Method in brief: as §1

[18] = tested on: LU99A
Method in brief: as §1

[19] = tested on: LXF-289
Method in brief: as §1

[20] = tested on: NCI-H1944
Method in brief: as §1

[21] = tested on: NCI-H1915
Method in brief: as §1

CC(=O)O[C@@]12CO[C@@H]1C[C@H](O)[C@@]1(C)C(=O)[C@H](O)C3=C(C)[C@@H](OC(=O)[C@H](O)[C@@H](NC(=O)OC(C)(C)C)c4ccccc4)C[C@@](O)([C@@H](OC(=O)c4ccccc4)[C@H]21)C3(C)C [Docetaxel] + COc1cc2c(Oc3ccc(NC(=O)C4(C(=O)Nc5ccc(F)cc5)CC4)cc3F)ccnc2cc1OCCCN1CCOCC1 [Foretinib] (partner 0.25 µM)
relative viability ([1]; first compound 0.0002 µM): 0.853
relative viability ([1]; first compound 0.000632 µM): 0.628
relative viability ([1]; first compound 0.002 µM): 0.633
relative viability ([1]; first compound 0.006325 µM): 0.614
relative viability ([1]; first compound 0.02 µM): 0.372
relative viability ([2]; first compound 0.0002 µM): 0.986
relative viability ([2]; first compound 0.000632 µM): 0.95
relative viability ([2]; first compound 0.002 µM): 0.487
relative viability ([2]; first compound 0.006325 µM): 0.475
relative viability ([2]; first compound 0.02 µM): 0.331
relative viability ([3]; first compound 0.0002 µM): 1
relative viability ([3]; first compound 0.000632 µM): 1.04
relative viability ([3]; first compound 0.002 µM): 0.686
relative viability ([3]; first compound 0.006325 µM): 0.261
relative viability ([3]; first compound 0.02 µM): 0.176
relative viability ([4]; first compound 0.0002 µM): 0.66
relative viability ([4]; first compound 0.000632 µM): 0.217
relative viability ([4]; first compound 0.006325 µM): 0.122
relative viability ([4]; first compound 0.02 µM): 0.0708
relative viability ([5]; first compound 0.0002 µM): 1.07
relative viability ([5]; first compound 0.000632 µM): 0.732
relative viability ([5]; first compound 0.002 µM): 0.427
relative viability ([5]; first compound 0.006325 µM): 0.295
relative viability ([6]; first compound 0.0002 µM): 0.952
relative viability ([6]; first compound 0.000632 µM): 0.933
relative viability ([6]; first compound 0.002 µM): 0.184
relative viability ([6]; first compound 0.006325 µM): 0.0294
relative viability ([6]; first compound 0.02 µM): 0.022
relative viability ([7]; first compound 0.0002 µM): 0.995
relative viability ([7]; first compound 0.000632 µM): 0.962
relative viability ([7]; first compound 0.002 µM): 0.754
relative viability ([7]; first compound 0.006325 µM): 0.232
relative viability ([7]; first compound 0.02 µM): 0.203
relative viability ([8]; first compound 0.0002 µM): 0.882
relative viability ([8]; first compound 0.000632 µM): 0.494
relative viability ([8]; first compound 0.002 µM): 0.441
relative viability ([8]; first compound 0.006325 µM): 0.395
relative viability ([9]; first compound 0.0002 µM): 0.85
relative viability ([9]; first compound 0.000632 µM): 0.122
relative viability ([9]; first compound 0.002 µM): 0.201
relative viability ([9]; first compound 0.006325 µM): 0.0376
relative viability ([9]; first compound 0.02 µM): 0.0329
relative viability ([10]; first compound 0.0002 µM): 0.816
relative viability ([10]; first compound 0.000632 µM): 0.407
relative viability ([10]; first compound 0.002 µM): 0.249
relative viability ([10]; first compound 0.006325 µM): 0.247
relative viability ([10]; first compound 0.02 µM): 0.175
relative viability ([11]; first compound 0.0002 µM): 1.18
relative viability ([11]; first compound 0.000632 µM): 1.26
relative viability ([11]; first compound 0.002 µM): 0.952
relative viability ([11]; first compound 0.006325 µM): 0.467
relative viability ([11]; first compound 0.02 µM): 0.304
relative viability ([12]; first compound 0.0002 µM): 0.634
relative viability ([12]; first compound 0.000632 µM): 0.493
relative viability ([12]; first compound 0.002 µM): 0.461
relative viability ([12]; first compound 0.006325 µM): 0.42
relative viability ([12]; first compound 0.02 µM): 0.34
relative viability ([13]; first compound 0.0002 µM): 0.737
relative viability ([13]; first compound 0.000632 µM): 0.459
relative viability ([13]; first compound 0.002 µM): 0.451
relative viability ([13]; first compound 0.006325 µM): 0.275
relative viability ([13]; first compound 0.02 µM): 0.196
relative viability ([14]; first compound 0.0002 µM): 0.852
relative viability ([14]; first compound 0.000632 µM): 0.965
relative viability ([14]; first compound 0.002 µM): 0.568
relative viability ([14]; first compound 0.006325 µM): 0.34
relative viability ([14]; first compound 0.02 µM): 0.414
relative viability ([15]; first compound 0.0002 µM): 0.934
relative viability ([15]; first compound 0.000632 µM): 0.943
relative viability ([15]; first compound 0.002 µM): 0.307
relative viability ([15]; first compound 0.006325 µM): 0.245
relative viability ([15]; first compound 0.02 µM): 0.186
relative viability ([16]; first compound 0.0002 µM): 0.592
relative viability ([16]; first compound 0.000632 µM): 0.493
relative viability ([16]; first compound 0.002 µM): 0.391
relative viability ([16]; first compound 0.006325 µM): 0.204
relative viability ([16]; first compound 0.02 µM): 0.186
relative viability ([17]; first compound 0.0002 µM): 0.7
relative viability ([17]; first compound 0.000632 µM): 0.278
relative viability ([17]; first compound 0.002 µM): 0.249
relative viability ([17]; first compound 0.006325 µM): 0.0711
relative viability ([17]; first compound 0.02 µM): 0.0667
relative viability ([18]; first compound 0.0002 µM): 0.718
relative viability ([18]; first compound 0.000632 µM): 0.794
relative viability ([18]; first compound 0.002 µM): 0.486
relative viability ([18]; first compound 0.006325 µM): 0.393
relative viability ([18]; first compound 0.02 µM): 0.259
relative viability ([19]; first compound 0.0002 µM): 0.977
relative viability ([19]; first compound 0.000632 µM): 0.924
relative viability ([19]; first compound 0.002 µM): 0.207
relative viability ([19]; first compound 0.006325 µM): 0.147
relative viability ([19]; first compound 0.02 µM): 0.0982
relative viability ([20]; first compound 0.0002 µM): 0.85
relative viability ([20]; first compound 0.000632 µM): 0.86
relative viability ([20]; first compound 0.002 µM): 0.692
relative viability ([20]; first compound 0.006325 µM): 0.31
relative viability ([20]; first compound 0.02 µM): 0.151
relative viability ([21]; first compound 0.0002 µM): 1.15
relative viability ([21]; first compound 0.000632 µM): 1.05
relative viability ([21]; first compound 0.002 µM): 0.736
relative viability ([21]; first compound 0.006325 µM): 0.262
relative viability ([21]; first compound 0.02 µM): 0.179
